In this assay the test system is Human immunodeficiency virus. The assay can be described thus: Antiviral activity against HIV replication in human H9 cells. It counts as functional, organism-based. The settings on record: Human immunodeficiency virus 1, H9.

pEC50: −log10 of the molar value.

In the case of `C[C@]12CCC[C@]3(C(=O)OC1)[C@@H]2CC[C@@]12C[C@@H](CC[C@H]13)[C@](C)(O)C2` [NEOTRIPTERIFORDIN], the pEC50 (as a rule, the EC50 on a negative log10 scale, so that one unit is a factor of ten) is 7.60.

(Values after ChEMBL document CHEMBL1221203, “Modern synthetic efforts toward biologically active terpenes” (Nat Chem Biol, 2007).)
